For one series, the system named is MEWO. Description: Antiproliferative activity, melanoma cell line. Conditions: Homo sapiens; melanoma MEWO (BRAF wild-type); read-out: IC50 (95% confidence interval). Format: cell-based. How it is done:
(§1) The antiproliferative activity was assessed by MTT proliferation assay (Table III) The anticancer activity was also investigated in a rare and lethal cancer (i.e. anaplastic thyroid cancer) by the use of three ATC-derived cell lines (Sw, FRO, 8505c). Again, the IC50 value after 72 h exposure was in the range of 10 to 50 nM. The same trend was also observed in four melanoma cell lines A2058, M14 (genotype BRAFV600E), SKMEL 197 e MEWO (genotype BRAF wild-type).

A further series relates to A2058. Description: Antiproliferative activity, melanoma cell line. Format: cell-based. Particulars: Homo sapiens; melanoma A2058 (BRAFV600E); read-out: IC50 (95% confidence interval). As for the experimental part: as §1
A further series deals with M14. Briefly: Antiproliferative activity, melanoma cell line. Format: cell-based. Particulars: Homo sapiens; melanoma M14 (BRAFV600E); read-out: IC50 (95% confidence interval). How it is done:
as §1

For the next series, the system named is SKMEL 197. Description: Antiproliferative activity, melanoma cell line. Type of series: cell-based. Particulars: melanoma SKMEL 197 (BRAF wild-type); read-out: IC50 (95% confidence interval). As for the experimental part:
as §1

The test system of series [1] is human lymphoma cell line TMD8. Briefly: Lymphoma xenograft in Nod-Scid mice. Type of series: in vivo. Conditions: 100 mg/kg oral gavage once daily, five times per week. How it is done:
FIG. 6 reports ADME-TOX profiling of compounds FC91, FC85, and FC86 as explained in example 7 FIG. 7 reports the inhibition of the compound FC86 on tumor growth in xenograft models of lymphoma (TMD8 engrafted in NOD-Scid mice); vehicle group (blue line), n=9 mice; FC86 treated group (red line), n=9 mice (Example 8). Tumor volume expressed in cubic mm plus SEM (Student t-test); p<0.01.
To this purpose, the compound was administered by oral gavage to Nod-Scid mice engrafted with the human lymphoma cell line TMD8 (15 millions of cells in 100 uL PBS/mouse). […] Body conditions were not affected by the treatments.

For series [2], the system named is healthy human thyroid cells. Briefly: Toxicity in healthy human thyroid cells (trypan blue staining). Type of series: cell-based. Particulars: 72 h. As for the experimental part:
FRTL5 were assayed with MTT, while healthy human thyroid cells by trypan blue staining. The percentage of dead cells, as counted after trypan blue staining, was around 10-15% at the dose of 800 nM of FC86.
To assess the toxicity FC86 was evaluated against a primary healthy human thyroid cell line at concentrations ranging from 3 nM to 800 nM for 72 h (FIG. 3). Data collected reveal that FC86 is not toxic for healthy human thyroid cells at concentration […] 400 nM. Such a concentration is 20× fold higher than IC50 detected in tumour cell lines.

Series [3] relates to peripheral blood mononuclear cells (PBMC). Briefly: Annexin V apoptosis in PBMC from healthy donors (FACS). Type of series: cell-based. Conditions: 200 nM, 48 h. As for the experimental part:
FC86 was incubated with cells at the concentration of 200 nM for 48 h. Annexin V was detected by flow cytometry (FACS). PBMCs (Peripheral blood mononuclear cells) were not affected by FC86.

The test system of series [4] is eight B-cell lymphoma cell lines. Description: MTT proliferation assay, panel of eight B-cell lymphoma cell lines. Type of series: cell-based. As for the experimental part: All the above compounds were tested in vitro for their anticancer activity against a panel of eight B-cell lymphoma cell lines by MTT proliferation assay. The tested cell lines belonging to mantle cell lymphoma (MCL: REC1, Z138), activated B-cell diffuse large B-cell lymphoma (ABC-DLBCL: R11, HBL1, U2932, TMD8), germinal center B-cell diffuse large B-cell lymphoma (GCB-DLBCL: SU-DHL-10, FARAGE) subtypes. In overall, MCL cell lines present Cyclin D1 overexpression, while ABC- and GCB-DLBCL's proliferation is BCR and BCL6/HDACs driven, respectively. At the RNA level, all tested lymphoma cell lines were characterized by an overexpression of 14-3-3 zeta as reported for B-cell lymphomas resistant to chemotherapeutic regimen.
In general terms: Tetrazolium dyes change colour on reduction, which living cells bring about.

Another series concerns TC-71. Briefly: MTT proliferation assay, Ewing sarcoma. Type of series: cell-based. How it is done: as §1
(§2) Table III IC50 expressed in μM and Emax (at 30 μM) for FC86 after 72 h exposure, were calculated by MTT assay

A further series deals with 6647. Briefly: MTT proliferation assay, Ewing sarcoma. Format: cell-based. How it is done:
as §1, §2

In another series the test system is SKNMC. Briefly: MTT proliferation assay, Ewing sarcoma. Format: cell-based. Particulars: Homo sapiens, SK-N-MC, 72 h exposure. As for the experimental part: as §1, §2
In another series the test system is A673. Briefly: MTT proliferation assay, Ewing sarcoma. Format: cell-based. Conditions: Homo sapiens. As for the experimental part: as §1, §2
In the next series the test system is TC-32. Briefly: MTT proliferation assay, Ewing sarcoma. Type of series: cell-based. Particulars: Homo sapiens. How it is done: as §1, §2

“Also recorded” adds a separate entry of the source.

On to `Cc1ccc(S(=O)(=O)Nc2ccc3c(c2)/C(=C/c2cccs2)C(=O)N3)cc1` [FC86, N-[(3Z)-2-oxo-3-(thiophene-2-ylmethylidene)-2,3-dihydro-1H-indol-5-yl]-4-methylbenzenesulfonamide], for which the half-inhibitory concentration (IC50) with MEWO was 57 nM; in the series on A2058, 28.6 nM; with M14, 14.1 nM; with SKMEL 197 it was 20.7 nM; in [4] (B-cell, read-out: IC50 in all eight lymphoma cell lines) it was below 1000 nM; with TC-71 (Ewing Sarcoma TC-71, 72 h exposure), 800 nM. Besides, the 50% inhibitory concentration (IC50) in the series on 6647 (Ewing Sarcoma 6647, 72 h exposure) was 90 nM; in the series on SKNMC, above 30000 nM; in the series on A673 (Ewing Sarcoma A673, 72 h exposure), 3200 nM; in the series with TC-32 (Ewing Sarcoma TC-32, 72 h exposure), 30 nM. Besides, the body conditions entry in series [1] was “not affected”. Further, the “tumor size vs vehicle at the end of the study” value in [1] is “two times smaller”. Moreover, the “tumor growth inhibition” value in series [1] (p<0.01) is on record as “significantly inhibit tumor growth”. The “toxicity for healthy human thyroid cells” value in series [2] (at concentration higher than 400 nM) is recorded as “not toxic”. In series [2] (healthy human thyroid cells, 800 nM), the “percentage of dead cells (trypan blue staining)” value is recorded as 10-15%. For the same molecule, the “apoptosis (Annexin V) in PBMC” value in series [3] is listed as “did not detect any sign of apoptosis; also recorded: not affected”. For the same molecule, in series [4] (eight different lymphoma cell lines), the “IC50 in eight different lymphoma cell lines” value is given as “nanomolar range”. The Emax at 30 µM in the series with TC-71 (Ewing Sarcoma TC-71, 30 μM, 72 h) came to 95%; with 6647 (Ewing Sarcoma 6647, 30 μM, 72 h) it was 75%; in the series with A673 (Ewing Sarcoma A673, 30 μM, 72 h) it was 85%; with TC-32 (Ewing Sarcoma TC-32, 30 μM, 72 h), 75%.

Usually IC50 stands for the concentration that inhibits the measured activity by half.

For the origin of these results see US20240350458A1, “14-3-3 PROTEIN MODULATORS AS ANTITUMOR AGENTS” (priority 2021, published 2024).
